Measured values reported in patent EP0366385A1, “Guanine derivatives having antiviral activity and their pharmaceutically acceptable salts” (THE WELLCOME FOUNDATION LIMITED, priority 1988, dated 1990).

Tested on: HIV
Experiment: Antiviral activity against HIV (method of Mitsuya et al.)
Type: cell-based
Conditions: Human immunodeficiency virus 1, read-out: IC₅₀
Procedure: The title compound of Example 1G (L-valine ester) and the title compound of Example 1F (the 1S, 4R enantiomeric form of carbovir) were tested for activity against HIV generally in accordance with the method described by Mitsuya et al, Proc. Natl. Acad. Sci. Vol. 82, pp 7096-7100, Oct. 1985 and found to have activity against HIV at the following concentrations

- IC50: 2500 nM
Compound: Nc1nc2c(ncn2[C@H]2C=C[C@@H](CO)C2)c(=O)[nH]1 [Example 1F, (1R, 4S)-9-(4-Hydroxymethyl-2-cyclopentenyl)guanine]
